According to ChEMBL document CHEMBL3414444, “Antiplasmodial activity: the first proof of inhibition of heme crystallization by marine isonitriles” (Eur J Med Chem, 2015):

Key:
Plasmodium falciparum [1] = assay: Antiplasmodial activity against Plasmodium falciparum K1; format: functional, organism-based
[2] = Inhibition of beta-hematin formation after 3 to 5 mins by EBHIA assay; format: physicochemical
Plasmodium falciparum [3] = assay: Antiplasmodial activity against Plasmodium falciparum D6; format: functional, organism-based
Plasmodium falciparum [4] = assay: Antiplasmodial activity against Plasmodium falciparum W2; format: functional, organism-based
Plasmodium falciparum [5] = assay: Antiplasmodial activity against Plasmodium falciparum NF54; format: functional, organism-based

## [C-]#[N+][C@@]1(C)CC[C@H]2[C@H]3[C@@H]4[C@H](C[C@@H](C)[C@@](C)(N=C=O)[C@H]4CC[C@@H]31)C[C@@H]2C
Plasmodium falciparum [1]
  IC50: 9 nM

## [C-]#[N+][C@@]1(C)CC[C@H]2[C@H]3[C@H]4C(=CC(C)(C)C[C@@H]4C[C@@H]2C)CC[C@@H]31
[2]
  inhibition (INH): 26%
Plasmodium falciparum [1]
  IC50: 24 nM
Plasmodium falciparum [3]
  IC50: 84 nM
Plasmodium falciparum [4]
  IC50: 24 nM

## CC(C)=CCC[C@@H](C)[C@H]1CC[C@](C)(N=C=S)[C@H]2CCC(C)=C[C@H]12
Plasmodium falciparum [1]
  IC50: > 30000 nM

## [C-]#[N+][C@]1(C)CC[C@H](/C(C)=C\C=C\C(C)C)CC1
[2]
  inhibition (INH): 62%

## CC1=CC2C(CC1)[C@](C)(N=C=S)CC[C@@H]2C(C)C (stereo partly drawn)
[2]
  inhibition (INH): 71%
Plasmodium falciparum [5]
  IC50: 5700 nM
Plasmodium falciparum [1]
  IC50: 5700 nM

## [C-]#[N+][C@@]1(C)CC[C@H]2[C@H]3[C@@H](C(=C)CC[C@@H]31)[C@@H](C=C(C)C)C[C@@H]2C
[2]
  inhibition (INH): 14%
Plasmodium falciparum [4]
  IC50: 423 nM

## CCN(CC)CCCC(C)Nc1ccnc2cc(Cl)ccc12 (stereo not drawn) [CHLOROQUINE]
[2]
  inhibition (INH): 4%
